Earlier results on one molecule are cited in patent publication US20090175934A1, “Extended Release Pharmaceutical Formulation of Venlafaxine and Method of Manufacturing the Same” (Jubilant Organosys Ltd., priority 2006, published 2009).

One data set deals with patients. The note with it: plural daily dosing regimen.
For data set [1] the following is noted: compressed tablets, therapeutic dosing.

Counter-ions that a name gives are not always drawn.

Consider `COc1ccc(C(CN(C)C)C2(O)CCCCC2)cc1` (stereo not drawn) [Venlafaxine hydrochloride], for which, in the data set on patients, the patients experiencing nausea entry was “about forty five percent” and the “patients in whom vomiting occurs” value is on record as “about seventeen percent”. For the same molecule, in data set [1], the “time until sub-therapeutic plasma levels are approached following administration” value is given as “about twelve hours”.
